The values below come from US9308214B2, “Method for moderately increasing the proton conductivity of biological membranes with the aid of mitochondria-targeted delocalized cations” (MITOTECH S.A., priority 2008, dated 2016).

The nature of data set [1]: Protonophore activity on black membrane model (diffusion potential on lipid bilayer). To be noted: C12-TPP 1 μM in both compartments; ΔpH=1 by KOH; palmitic acid 1 mg/ml in membrane vs absent; pH 7.5. As to the method: To test penetrating ability of mitochondria-targeted compounds of structure (I), a method based on the ability of ions to penetrate through the bilayer phospholipid membrane moving along concentration gradient was used. The two chambers filled with an aqueous solution are separated by the bilayer membrane, the compound tested is added to one of the chambers. If a charged compound is capable of penetrating through the bilayer membrane, fast diffusion of the compound from the chamber with its high concentration to the chamber with its low concentration occurs, thus difference in the potentials is formed on the membrane. For ions carrying one charge and capable of passive penetrating through the membrane, the 10-fold concentration gradient allows to produce the potential of 60 mV (according to the Nernst equation).
This method was used in various studies on the ability of ions to penetrate through a bilipid membrane and is described in Starkov, et al. (1997) Biochem. Biophys. Acta, 1318:159-172. With this method, C12-TPP (compound of structure (I)) was tested.
Experiments were carried out in a Teflon cuvette having two compartments, and in a 0.6-mm hole between the two compartments the membrane was formed. Medium contained 50 mM Tris-HCl, 100 mM KCl, pH=7.5. ΔpH=1 was created by adding KOH to one of the cuvette compartments. […]

The subject of data set [2] is yeast Saccharomyces cerevisiae. Description: Programmed death in yeast induced by amiodarone (colony survival). The data set is classed as cell-based. To be noted: 80 μM amiodarone; for survival of yeast cells (protective effect, in words): TPP tested from 100 nM to 400 nM; for survival of yeast cells: 1 hr at 30° C., survival without compound 2 percent, 3 independent experiments, p below 0.05. From the text: Amiodarone (a calcium channel blocker) causes the death of the yeast Saccharomyces cerevisiae which by a number of features resembles apoptosis in higher eukaryotes. In the cells, amiodarone induces activation of a cascade of events leading to formation of reactive oxygen species and subsequent cell death. […] A source of formation of reactive oxygen species induced by amiodarone is a hyperpolarized mitochondrium.
The following compounds of structure (I) (SKQ1, SKQ3, and C12TPP) were selected for this study. […] Then a compound of structure (I) or mock and 80 μM amiodarone were added to the cell suspension. Cells were incubated for 1 hr at 30° C. and afterwards transferred to solid YPD medium containing 2% bactoagar. The number of colonies was counted after 2 days of incubation on solid medium. 100% survival corresponds to the number of colonies from zero time-point transferred to solid medium prior to addition of amiodarone.

Data set [3] is described as follows: Fluorescence correlation spectroscopy of SkQR1 micelles in aqueous solution with fatty acid (stearate). The data set is classed as physicochemical. As to the method:
Fluorescence correlation spectroscopy (FCS) is often used to study micellization of surfactants. In one report (Lu, et al. (2006) Analytica Chimica Acta, 556:216-225), R18, i.e., rhodamine with covalently attached fat tail was used as a marker. R18 itself forms large and poorly fluorescent aggregates in aqueous solution resulting in a small number of particles in the confocal volume (N) and a small fluorescence signal. When a detergent was added at a concentration above its CMC (the critical micelle concentration), an increase in total fluorescence and a significant increase in the number of particles N occurred. […] That was associated with lower diffusion coefficient of detergent micelles as compared to the R18 aggregates.
FIGS. 6A and B show the effect of a fatty acid (stearate) on the autocorrelation function of SkQR1 in water. […] For example, the number of particles in the confocal volume sharply increases. The constant of micelle formation for stearate is about 0.3 mM. In this case, fragmentation of the SkQR1 aggregates induced by such low concentrations of the fatty acid occurs. This fragmentation decreases the degree of the self-quenching of fluorescence that increases the total signal. […] The constant of micelle formation for anionic surfactants decreases under the influence of cationic surfactants or polymers. In that case, the total fluorescence signal was 141 kHz. […] The total fluorescence signal was 63 kHz that points to the beginning of the self-quenching of the dye in the micelles.
The fluctuations of the fluorescence signal in this case have no diffusion component yet. This process may be the output/input of SkQR1 molecules from water into micelles that can lead to fluctuations of the fluorescence due to the different quantum yield of fluorescence of the dye in polar and non-polar environments (Zettl, et al. (2005) J. Phys. Chem. B. 109:13397-13401).

Turning to `CCCCCCCCCCCC[P+](c1ccccc1)(c1ccccc1)c1ccccc1` [C12-TPP, dodecyl triphenylphosphonium], the “diffusion potential (ΔΨ) in response to ΔpH creation” value in data set [1] is “presence of a fatty acid in the membrane facilitates an increase in diffusion potential”. For the same compound, the “survival of yeast cells (protective effect, in words)” value in data set [2] is “even more effective than the tested antioxidants”. For the same compound, the “optimum concentration of the protective effect” value in data set [2] (pronounced concentration dependence) is on record as 200 nM.
Turning to `COc1c(O)c(C)c(CCCCCCCCCC[P+](c2ccccc2)(c2ccccc2)c2ccccc2)c(O)c1OC` [MitoQ], the “survival of yeast cells” value in data set [2] came to 8%.
In the case of `Cc1c(O)cc(CCCCCCCCCC[P+](c2ccccc2)(c2ccccc2)c2ccccc2)c(O)c1C` [SkQ1], the “survival of yeast cells (protective effect, in words)” value in data set [2] is “significantly increase the survival”.
On the same count and under the same terms, the same measure for `Cc1c(C)c(O)c(CCCCCCCCCC[P+](c2ccccc2)(c2ccccc2)c2ccccc2)c(C)c1O` [SkQ3]: “significantly increase the survival”.
For `CC/N=c1/cc2oc3cc(NCC)c(C)cc3c(-c3ccccc3C(=O)OCCCCCCCCCCC3=CC(=O)C(C)=C(C)C3=O)c-2cc1C` [SkQR1], the “fluorescence signal from the sample” value in data set [3] (1.5 μg/ml (about 5 μM) stearate) was determined as 67 kHz; in data set [3] (in water, absence of stearate), 44 kHz. Besides, in data set [3] (aggregates degrade in presence of low concentrations of fatty acids), the “aggregation state in aqueous solution” value is “forms micelles (or large aggregates) in aqueous solution”. Besides, the values for the total fluorescence signal in data set [3] (further increase in concentration of stearate (above 50 μM)) and in data set [3] (stearate up to 50 μM) were 63 kHz and 141 kHz, respectively. Also, the “survival of yeast cells” value in data set [2] was 7%.
